In patent US11230538B2, “Herbicides” (SYNGENTA PARTICIPATIONS AG, priority 2016, dated 2022):

Legend:
Assay type in all cases: in vivo
[1] = tested on: Alopecurus myosuroides (ALOMY); assay: B1 Pre-emergence herbicidal activity; parameters: key: 5=total damage to plant; 0=no damage to plant; conditions: pre-emergence application, rate 1000 g/ha, evaluated after 13 days
Summary of the method: (§1)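 Pre-emergence spray one day after sowing; vehicle acetone/water 50:50 + 0.5% Tween 20. Glasshouse 24/16 °C, 14 h light, 65% RH, watered twice daily. Visual damage score at day 13, 0–5 scale (5 = total damage).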

Avena fatua (AVEFA) [2] = assay: B1 Pre-emergence herbicidal activity; parameters: key: 5=total damage to plant; 0=no damage to plant; conditions: pre-emergence application, rate 1000 g/ha, evaluated after 13 days
Summary of the method: as §1

[3] = tested on: Triticum aestivium (TRZAW); assay: B1 Pre-emergence herbicidal activity; parameters: key: 5=total damage to plant; 0=no damage to plant; conditions: pre-emergence application, rate 1000 g/ha, evaluated after 13 days
Summary of the method: as §1

Lolium perenne (LOLPE) [4] = assay: B2 Post-emergence herbicidal activity; parameters: key to Post-emergence herbicidal activity, LOLPE (damage score 0-5): 5=total damage to plant; 0=no damage to plant; conditions: post-emergence application, rate 1000 g/ha, evaluated after 13 days
Experimental: (§2) Seeds of a variety of test species were sown in standard soil in pots: Triticum aestivium (TRZAW), Avena fatua (AVEFA), Alopecurus myosuroides (ALOMY), Echinochloa crus-galli (ECHCG), Lolium perenne (LOLPE), Zea Mays (ZEAMX), Abutilon theophrasti (ABUTH), Amaranthus retroflexus (AMARE) and Setaria fabenri (SETFA). After 8 days cultivation (post-emergence) under controlled conditions in a glasshouse (at 24/16° C., day/night; 14 hours light; 65% humidity), the plants were sprayed with an aqueous spray solution derived from the formulation of the technical active ingredient in acetone I water (50:50) solution containing 0.5% Tween 20 (polyoxyethelyene sorbitan monolaurate, CAS RN 9005-64-5). The test plants were then grown in a glasshouse under controlled conditions (at 24/16° C., day/night; 14 hours light; 65% humidity) and watered twice daily. After 13 days, the test was evaluated (5=total damage to plant; 0=no damage to plant).

[5] = tested on: Echinochloa crus-galli (ECHCG); assay: B2 Post-emergence herbicidal activity; parameters: key to Post-emergence herbicidal activity, ECHCG (damage score 0-5): 5=total damage to plant; 0=no damage to plant; conditions: post-emergence application, rate 1000 g/ha, evaluated after 13 days
Summary of the method: (§3)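 Post-emergence spray, 8-day-old potted seedlings; formulation acetone:water 50:50 + 0.5% Tween 20. Glasshouse 24/16 °C, 14 h light, 65% RH. Scored day 13, 0 (no damage) to 5 (total damage).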

[6] = tested on: Alopecurus myosuroides (ALOMY); assay: B2 Post-emergence herbicidal activity; parameters: key: 5=total damage to plant; 0=no damage to plant; conditions: post-emergence application, rate 1000 g/ha, evaluated after 13 days
Summary of the method: as §3

Setaria fabenri (SETFA) = assay: B2 Post-emergence herbicidal activity; parameters: key: 5=total damage to plant; 0=no damage to plant; conditions: post-emergence application, rate 1000 g/ha, evaluated after 13 days
Summary of the method: as §3

[7] = tested on: Triticum aestivium (TRZAW); assay: B2 Post-emergence herbicidal activity; parameters: key: 5=total damage to plant; 0=no damage to plant; conditions: post-emergence application, rate 1000 g/ha, evaluated after 13 days
Summary of the method: as §3

Avena fatua (AVEFA) [8] = assay: B2 Post-emergence herbicidal activity; conditions: post-emergence application, rate 1000 g/ha, evaluated after 13 days
Experimental: as §2

Lolium perenne (LOLPE) [9] = assay: B1 Pre-emergence herbicidal activity; parameters: key to Pre-emergence herbicidal activity, LOLPE (damage score 0-5): 5=total damage to plant; 0=no damage to plant; conditions: pre-emergence application, rate 1000 g/ha, evaluated after 13 days
Summary of the method: as §1

[10] = tested on: Echinochloa crus-galli (ECHCG); assay: B1 Pre-emergence herbicidal activity; parameters: key to Pre-emergence herbicidal activity, ECHCG (damage score 0-5): 5=total damage to plant; 0=no damage to plant; conditions: pre-emergence application, rate 1000 g/ha, evaluated after 13 days
Summary of the method: as §1

Setaria fabenr (SETFA) = assay: B1 Pre-emergence herbicidal activity; parameters: key to Pre-emergence herbicidal activity, SETFA (damage score 0-5): 5=total damage to plant; 0=no damage to plant; conditions: pre-emergence application, rate 1000 g/ha, evaluated after 13 days
Summary of the method: as §1

Structure (SMILES)	Pre-emergence herbicidal activity, ALOMY (damage score 0-5) [1]	Pre-emergence herbicidal activity, AVEFA (damage score 0-5) (Avena fatua (AVEFA) [2])	Pre-emergence herbicidal activity, TRAZW (damage score 0-5) [3]	Post-emergence herbicidal activity, LOLPE (damage score 0-5) (Lolium perenne (LOLPE) [4])	Post-emergence herbicidal activity, ECHCG (damage score 0-5) [5]	Post-emergence herbicidal activity, ALOMY (damage score 0-5) [6]	Post-emergence herbicidal activity, SETFA (damage score 0-5) (Setaria fabenri (SETFA))	Post-emergence herbicidal activity, TRAZW (damage score 0-5) [7]	Post-emergence herbicidal activity, AVEFA (damage score 0-5) (Avena fatua (AVEFA) [8])	Pre-emergence herbicidal activity, LOLPE (damage score 0-5) (Lolium perenne (LOLPE) [9])	Pre-emergence herbicidal activity, ECHCG (damage score 0-5) [10]	Pre-emergence herbicidal activity, SETFA (damage score 0-5) (Setaria fabenr (SETFA))
CCC(=O)N(CC#N)c1ccc(-c2cncc(F)c2)nc1C(F)(F)F [Compound C57]	0	1	0	2	4	0	4	0	2	0	3	4
Cc1ccc(C(=O)Nc2ccc(-c3cncc(F)c3)nc2C(F)(F)F)cc1 [Compound C30]	2	3	0	3	5	0	5	0	4	1	5	5
CC(=O)N(C(C)=O)c1ccc(-c2cncc(F)c2)nc1C(F)(F)F [Compound C5, N-acetyl-N-[6-(5-fluoro-3-pyridyl)-2-(trifluoromethyl)-3-pyridyl]acetamide]	1	3	0	4	4	1	5	0	4	1	4	5
C=CCN(C(=O)COC)c1ccc(-c2cncc(F)c2)nc1C(F)(F)F [Compound C63]	0	0	0	2	4	1	4	0	2	1	2	4
O=CNc1ccc(-c2cncc(F)c2)nc1C(F)(F)F [Compound C112]	1	2	0	3	4	0	1	1	3	1	3	4
O=C(Nc1ccc(-c2cncc(F)c2)nc1C(F)(F)F)c1ccccc1F [Compound C46]	0	1	0	1	3	0	4	0	2	1	2	4
O=C(Nc1ccc(-c2cncc(F)c2)nc1C(F)(F)F)c1cccs1 [Compound C47]	1	2	0	3	5	1	5	0	4	1	5	4
O=C(Nc1ccc(-c2cncnc2)nc1C(F)(F)F)C(Cl)(Cl)Cl [Compound C60]	0	2	0	3	4	0	4	0	3	0	3	5
CC(C)C(=O)N(C)c1ccc(-c2cncc(F)c2)nc1C(F)(F)F [Compound C4, N-[6-(5-fluoro-3-pyridyl)-2-(trifluoromethyl)-3-pyridyl]-N,2-dimethyl-propanamide]	0	1	0	5	4	1	3	1	4	5	4	1
O=C(Nc1ccc(-c2cncc(F)c2)nc1C(F)(F)F)c1cc(F)c(F)cc1F [Compound C33]	0	1	0	1	2	0	3	0	2	1	1	2
